According to US8952024B2, “Herbicidal pyrimidone derivatives” (E I du Pont de Nemours and Company, priority 2009, dated 2015):

What was measured:
Assay type in all cases: in vivo
[1] = tested on: velvetleaf (Abutilon theophrasti); test: Test A pre-/postemergence plant response
Procedure, shortened: (§1)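 Plants grown from seed in a loam soil and sand mix received test compounds both as a preemergence soil spray and, at the same time, as a postemergence spray at the one- to two-leaf stage. Injury was judged visually against untreated controls roughly ten days later, 0 meaning no effect and 100 complete control.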

corn (Zea mays) = test: Test A pre-/postemergence plant response
Procedure, shortened: as §1

[2] = tested on: giant foxtail (Setaria faberii); test: Test A pre-/postemergence plant response
Procedure, shortened: as §1

[3] = tested on: large crabgrass (Digitaria sanguinalis); test: Test A pre-/postemergence plant response
Procedure, shortened: as §1

[4] = tested on: morningglory (Ipomoea spp.); test: Test A pre-/postemergence plant response
Procedure, shortened: as §1

[5] = tested on: wheat (Triticum aestivum); test: Test A pre-/postemergence plant response
Procedure, shortened: as §1

[6] = tested on: windgrass (Apera spica-venti); test: Test B postemergence plant response; conditions: for Plant response rating, Windgrass: Postemergence
Procedure, shortened: (§2)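 Plants at the 1- to 4-leaf stage (2 to 18 cm tall), grown in pots of peat moss/vermiculite medium with wetting agent and starter nutrients, received postemergence applications of test chemicals. After 13 to 15 days in a greenhouse, injury was rated visually against untreated controls on a 0 (no effect) to 100 (complete control) scale.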

[7] = tested on: canarygrass (Phalaris minor); test: Test B postemergence plant response; conditions: for Plant response rating, Canarygrass: Postemergence
Procedure, shortened: as §2

[8] = tested on: chickweed (Stellaria media); test: Test B postemergence plant response; conditions: for Plant response rating, Chickweed: Postemergence
Procedure, shortened: as §2

[9] = tested on: winter barley (Hordeum vulgare); test: Test B postemergence plant response; conditions: for Plant response rating, Barley: Postemergence
Procedure, shortened: as §2

[10] = Postemergence, 125 g ai/ha, 0 to 100 scale where 0 is no effect and 100 is complete control
[11] = Postemergence, 500 g ai/ha, 0 to 100 scale, 0 = no effect, 100 = complete control, approx. ten days
[12] = Preemergence, 125 g ai/ha, 0 to 100 scale, 0 = no effect, 100 = complete control
[13] = Preemergence, 500 g ai/ha, visual injury, 0 to 100 scale (0 no effect, 100 complete control), approx. ten days
[14] = 62 g ai/ha, postemergence, 0 is no effect, 100 is complete control, 13 to 15 days
[15] = 31 g ai/ha, 0 to 100 scale (0 no effect, 100 complete control)
[16] = 125 g ai/ha, scale 0 to 100 (0 no effect, 100 complete control)

CCn1c(-c2cc(F)cc(F)c2)ncc(C(=O)C2=C(O)CCCC2=O)c1=O [Compound 122]
45: Plant response rating, Canarygrass [7, 16]
50: Plant response rating, Wheat [5, 11] | Plant response rating, Windgrass [6, 16] | Plant response rating, Barley [9, 16]
90: Plant response rating, Crabgrass, Large [3, 11] | Plant response rating, Crabgrass, Large [3, 12] | Plant response rating, Morningglory [4, 10]
100: Plant response rating, Velvetleaf [1, 10] | Plant response rating, Velvetleaf [1, 11] | Plant response rating, Velvetleaf [1, 12] | Plant response rating, Velvetleaf [1, 13] | Plant response rating, Foxtail, Giant [2, 13] | Plant response rating, Crabgrass, Large [3, 13] | Plant response rating, Morningglory [4, 11]
10: Plant response rating, Canarygrass [7, 15] | Barley plant response rating (0 to 100 scale) [9, 14]
80: Plant response rating, Foxtail, Giant [2, 11] | Plant response rating, Morningglory [4, 13] | Plant response rating, Chickweed [8, 16]
40: Plant response rating, Morningglory [4, 12] | Plant response rating, Wheat [5, 13]
30: Plant response rating, Corn (corn (Zea mays); [11]) | Plant response rating, Foxtail, Giant [2, 12] | Windgrass plant response rating (0 to 100 scale) [6, 14]
0: Plant response rating, Corn (corn (Zea mays); [10]) | Plant response rating, Corn (corn (Zea mays); [12]) | Plant response rating, Corn (corn (Zea mays); [13]) | Plant response rating, Wheat [5, 10] | Plant response rating, Wheat [5, 12] | Plant response rating, Canarygrass ([7]; 16 g ai/ha, 0 to 100 scale) | Plant response rating, Barley ([9]; 16 g ai/ha, 0 to 100 scale) | Plant response rating, Barley [9, 15]
70: Plant response rating, Foxtail, Giant [2, 10] | Plant response rating, Crabgrass, Large [3, 10] | Chickweed plant response rating (0 to 100 scale) [8, 14] | Plant response rating, Chickweed [8, 15]
35: Canarygrass plant response rating (0 to 100 scale) [7, 14]
5: Plant response rating, Windgrass ([6]; 16 g ai/ha, 0 to 100 scale) | Plant response rating, Windgrass [6, 15]
65: Plant response rating, Chickweed ([8]; 16 g ai/ha, 0 to 100 scale)
